# Measured values reported in patent US5488055A, “Substituted N-cycloalkylmethyl-1H-pyrazolo(3,4-b)quinolin-4 amines and compositions and methods of use thereof” (Sanofi Winthrop Inc., priority 1995, dated 1996).
# Read-outs that look alike come from different tables or passages of the source.
# What was measured:
# [1] = tested on: Spontaneously hypertensive rats (SHR); test: Antihypertensive activity in spontaneously hypertensive rats, iv; assay type: in vivo, rat
# Experimental: After a 2 day recovery from surgery, three baseline blood pressure measurements were made at 5 min intervals in conscious SHR. Compounds to be tested or vehicle were then administered intravenously in a dose-dependent manner (0.3-10 mg base/kg) while arterial pressure was recorded continuously on a polygraph. The mean arterial pressure response was measured 5 minutes after the administration of each dose of the test compound and the next dose given in a cumulative dose fashion. The response to each dose of the test compound was calculated as the difference from the mean of the three baseline measurements.
# cGMP-PDE V [2] = test: c-GMP-PDE V inhibitory activity; assay type: biochemical, various animal species and man
# Experimental: The cGMP-PDE and other PDE isozymes were isolated from cardiovascular tissues (heart and aorta) of various animal species and man by anion-exchange and affinity chromatography as described by Silver et al., Sec. Messeng. Phos. 13:13-25, 1991; PDE activity, in the presence and absence of test compounds was determined essentially as described by Thompson et al., Adv. Cyclic Nucleotide Res. 10:69-92. To determine the potency and selectivity of compounds as PDE inhibitors, compounds are screened for their effect on cyclic nucleotide hydrolysis at 10 μM. […] The IC50 values are calculated from concentration-response curves as described by Tallarida and Murray, Manual of Pharmacologic Calculations with Computer Programs, Procedure 8, Graded Dose-response, pp. 14-19, Springer-Verlag, New York, 1981.
# [3] = tested on: Spontaneously hypertensive rats; test: Reversal of nitrate-induced tolerance in nitroglycerin tolerant spontaneously hypertensive rats; assay type: in vivo, rat
# Experimental: Spontaneously hypertensive rats (17-25 weeks of age) were made nitroglycerin tolerant by repeated administration of high doses of nitroglycerin (100 mg/kg, s.c., 3 times/day for 3 consecutive days). To confirm tolerance challenge doses of nitroglycerin were administered intravenously at doses ranging from 1-300 μg/kg and the maximum change in mean arterial pressure (MAP) for each dose was recorded. Groups of tolerant rats were pretreated with the compounds of the invention (tolerant pretreated group) or with vehicle (0.05 N NaOH) (tolerant vehicle pretreated group) intravenously 5-10 minutes prior to administration of challenge doses of nitroglycerin. The administration of challenge doses of nitroglycerin to non-tolerant rats (the non-tolerant group) caused a dose-dependent decrease in MAP of between 10 to 40 mm Hg. […] The area under the dose-MAP curve was calculated for the non-tolerant group and for the tolerant vehicle pretreated group and the tolerant pretreated group. The percent reversal of nitrate-induced tolerance was calculated as follows:
# Percent Reversal=(AUCtol-pretreated -AUCtol-veh) /(AUCnontol
# AUCnontol =the area under the dose-MAP curve for the non-tolerant group.
# AUCtol-veh =the area under the dose-MAP curve for the tolerant vehicle pretreated group.
# AUCtol-pretreated =the area under the dose-MAP curve for the tolerant pretreated group. […]
# [4] = Crenshaw et al., J. Med. Chem. 1976; cited from earlier work
# cGMP-PDE V [5] = settings: read-out: Km for the hydrolysis of cGMP; isozyme of vascular smooth muscle and renal cells; cited from earlier work
# [6] = Rattus norvegicus, 5 min, cumulative dosing, 5 minutes after dose, read-out: % change in mean arterial pressure
# [7] = separate experimental runs, first value
# [8] = separate experimental runs, second value
smiles,measurement,setting,value
"CCn1ncc2c(NCC3CCCCC3)c3ccccc3nc21 [1(c), 1-ethyl-N-(cyclohexylmethyl)-1H-pyrazolo[3,4-b]quinolin-4-amine]",change in vivo at 10 mg/kg,[1]; [6],-15%
same,IC50,cGMP-PDE V [2],83 nM
"CCn1ncc2c(NCC3CCC(CO)CC3)c3ccccc3nc21 (stereo not drawn) [6(b), 1-ethyl-N-[(4-hydroxymethylcyclohexyl)methyl]-1H-pyrazolo[3,4-b]quinolin-4-amine]",change in vivo at 10 mg/kg,[1]; [6],-23%
same,IC50,cGMP-PDE V [2],120 nM
"CCn1ncc2c(NCC3CCCCC3)c3cc(OC)ccc3nc21 [7(d), 1-ethyl-6-methoxy-N-(cyclohexylmethyl)-1H-pyrazolo[3,4-b]quinolin-4-amine]",change in vivo at 3 mg/kg,[1]; [6],-16%
same,IC50,cGMP-PDE V [2],33 nM
"CCn1ncc2c(NCC3CCCCC3)c3cc([N+](=O)[O-])ccc3nc21 [15(c), 1-ethyl-6-nitro-N-(cyclohexylmethyl) -1H-pyrazolo[3,4-b]quinolin-4-amine]",change in vivo at 3 mg/kg,[1]; [6],-18%
same,IC50,cGMP-PDE V [2],1.5 nM
"CCn1ncc2c(NCC3CCCCC3)c3cc(OCC(O)CO)ccc3nc21 (stereo not drawn) [17(b), 1-ethyl-6-(2,3-dihydroxypropoxy)-N-(cyclohexylmethyl)-1H-pyrazolo[3,4-b]quinolin-4-amine]",change in vivo at 10 mg/kg,[1]; [6],-6%
same,IC50,cGMP-PDE V [2],130 nM
"CCn1ncc2c(NCC3CCCCC3)c3ccc(C(=O)O)cc3nc21 [23(c), 1-ethyl-7-carboxy-N-(cyclohexylmethyl)-1H-pyrazolo[3,4-b]quinolin-4-amine]",change in vivo at 3 mg/kg,[1]; [6],-7%
same,IC50,cGMP-PDE V [2],38 nM
"CCn1ncc2c(N[C@@H](C)C3CCCCC3)c3cc(S(C)(=O)=O)ccc3nc21 [37(d), 1-ethyl-6-(methylsulfonyl)-N-[S(+)-1-(cyclohexyl)ethyl]-1H-pyrazolo[3,4-b]quinolin-4-amine]",change in vivo at 3 mg/kg,[1]; [6],-15%
same,change in vivo at 10 mg/kg,[1]; [6],-18%
same,IC50,cGMP-PDE V [2]; [7],8.3 nM
same,IC50,cGMP-PDE V [2]; [8],11.5 nM
"CCn1ncc2c(NCC3CCCCC3)c3cc(O)ccc3nc21 [Example 8, 1-ethyl-6-hydroxy-N-(cyclohexylmethyl)-1H-pyrazolo[3,4-b]quinolin-4-amine]","% change in mean arterial pressure or ED25, result in words",[1]; 0.3-10 mg base/kg,Inactive
same,IC50,cGMP-PDE V [2],36 nM
"CCn1ncc2c(NCC3CCCCC3)c3cc(OCC(=O)O)ccc3nc21 [Example 13, 1-ethyl-6-(carboxymethoxy)-N-(cyclohexymethyl)-1H-pyrazolo[3,4-b]quinolin-4-amine]",change in vivo at 1 mg/kg,"[1]; Rattus norvegicus, 5 min, 1 mg/kg, cumulative dosing, 5 minutes after dose, read-out: % change in mean arterial pressure",-10%
same,IC50,cGMP-PDE V [2],42 nM
"CCn1ncc2c(NCC3CCCCC3)c3cc(OCC4CO4)ccc3nc21 (stereo not drawn) [Example 21, 1-ethyl-6-(2,3-epoxypropoxy)-N-(cyclohexylmethyl)-1H-pyrazolo[3,4-b]quinolin-4amine]",change in vivo at 10 mg/kg,[1]; [6],-12%
same,IC50,cGMP-PDE V [2],91 nM
"CCn1ncc2c(NCC3CCCCC3)c3cc(OC(C)C(=O)O)ccc3nc21 (stereo not drawn) [Example 22, 1-ethyl-6-(1-carboxyethoxy)-N-(cyclohexylmethyl)-1H-pyrazolo[3,4-b]quinolin-4-amine]",change in vivo at 10 mg/kg,[1]; [6],-7%
same,IC50,cGMP-PDE V [2],74 nM
"CCn1ncc2c(N[C@@H](C)C3CCCCC3)c3cc([N+](=O)[O-])ccc3nc21 [Example 34, 1-ethyl-6-nitro-N-[S(+)-1-(cyclohexyl)ethyl]-1H-pyrazolo[3,4-b]quinolin-4-amine]",IC50,cGMP-PDE V [2]; [7],0.22 nM
same,IC50,cGMP-PDE V [2]; [8],0.16 nM
same,IC50,"cGMP-PDE V [2]; separate experimental runs, third value",0.08 nM
same,Percent (%) Reversal of Nitroglycerin-induced Tolerance,"[3]; 1.0 mg/kg, intravenously 5-10 minutes prior to nitroglycerin challenge",44%
"CCn1ncc2c(N[C@@H](C)C3CCCCC3)c3cc(-n4cccn4)ccc3nc21 [Example 52, 1-ethyl-6-(1-pyrazolyl)-N-[S(+)-1-(cyclohexyl)ethyl]-1H-pyrazolo[3,4-b]quinolin-4-amine]",IC50,cGMP-PDE V [2]; [7],0.2 nM
same,IC50,cGMP-PDE V [2]; [8],0.27 nM
"CC[C@H](Nc1c2cc([N+](=O)[O-])ccc2nc2c1cnn2CC)C1CCCCC1 [Example 54, 1-ethyl-6-nitro-N-[S(+)-1-(cyclohexyl)propyl]-1H-pyrazolo[3,4-b]quinolin-4-amine]",IC50,cGMP-PDE V [2]; [7],5.9 nM
same,IC50,cGMP-PDE V [2]; [8],8.8 nM
"C=Cc1ccc2nc3c(cnn3CC)c(N[C@@H](C)C3CCCCC3)c2c1 [Example 55, 1-ethyl-6-(ethenyl)-N-[S(+)-1(cyclohexyl)ethyl]-1H-pyrazolo[3,4-b]quinolin-4-amine]",Percent Inhibition cGMP-PDE V,cGMP-PDE V [2]; 0.001 μM,58%
same,Percent Inhibition cGMP-PDE V,cGMP-PDE V [2]; 0.01 μM,91%
same,Percent Inhibition cGMP-PDE V,cGMP-PDE V [2]; 0.1 μM,96%
"Cc1nn(C)c2nc3ccccc3c(NCCCNC34CC5CC(CC(C5)C3)C4)c12 [N-(1,3-dimethyl-1H-pyrazolo[3,4-b]quinolin-4-yl)-N'-tricyclo[3.3.1.1^3.7]dec-1-yl-1,3-propane diamine]",activity in the interferon assay,[4],inactive
Cc1nn(C)c2nc3ccccc3c(NCc3cccnc3)c12 [N-(3-pyridinylmethyl)],activity in the interferon assay,[4],inactive
"Cc1nn(C)c2nc3ccccc3c(NCc3ccccc3N(C)C)c12 [N-[[2-(dimethylamino)phenyl]methyl]-1,3-dimethyl-1H-pyrazolo[3,4-b]quinolin-4-amines]",activity in the interferon assay,[4],inactive
Cc1nn(C)c2nc3ccccc3c(NC3CC3)c12 [N-cyclopropyl],activity in the interferon assay,[4],inactive
"Cc1nn(C)c2nc3ccccc3c(NC34CC5CC(CC(C5)C3)C4)c12 [N-tricyclo[3.3.1.13,7]dec-1-yl]",activity in the interferon assay,[4],inactive
"Nc1nc2c(ncn2[C@@H]2O[C@@H]3COP(=O)(O)O[C@H]3[C@H]2O)c(=O)[nH]1 [cGMP, cyclic guanosine monophosphate]",Km,cGMP-PDE V [5],1 µM
"O=[N+]([O-])OCC(CO[N+](=O)[O-])O[N+](=O)[O-] [nitroglycerin, reference compound]","hypotensive response to challenge doses of nitroglycerin, in words",[3]; tolerant vehicle pretreated group,significant reduction of the hypotensive response
